Assay results from ChEMBL document CHEMBL5712083, “Regulation of Epstein-Barr Virus Life Cycle and Cell Proliferation by Histone H3K27 Methyltransferase EZH2 in Akata Cells” (mSphere, 2018).
Active and inactive are the calls of the source. No cut-off for these calls is given here.

Columns and labels:
Format in all cases: cell-based
[1] = molecular target: Histone-lysine N-methyltransferase EZH2 (Homo sapiens) (UniProt Q15910); assay: Inhibition of EZH2 in human EBV-positive Akata cells assessed as effect on lytic gene BZLF1 at 1 uM after 3 days by qRT-PCR analysis; settings: time 3.0 day
Histone-lysine N-methyltransferase EZH2 (Homo sapiens), sequence (Q15910 whole entry, looked up): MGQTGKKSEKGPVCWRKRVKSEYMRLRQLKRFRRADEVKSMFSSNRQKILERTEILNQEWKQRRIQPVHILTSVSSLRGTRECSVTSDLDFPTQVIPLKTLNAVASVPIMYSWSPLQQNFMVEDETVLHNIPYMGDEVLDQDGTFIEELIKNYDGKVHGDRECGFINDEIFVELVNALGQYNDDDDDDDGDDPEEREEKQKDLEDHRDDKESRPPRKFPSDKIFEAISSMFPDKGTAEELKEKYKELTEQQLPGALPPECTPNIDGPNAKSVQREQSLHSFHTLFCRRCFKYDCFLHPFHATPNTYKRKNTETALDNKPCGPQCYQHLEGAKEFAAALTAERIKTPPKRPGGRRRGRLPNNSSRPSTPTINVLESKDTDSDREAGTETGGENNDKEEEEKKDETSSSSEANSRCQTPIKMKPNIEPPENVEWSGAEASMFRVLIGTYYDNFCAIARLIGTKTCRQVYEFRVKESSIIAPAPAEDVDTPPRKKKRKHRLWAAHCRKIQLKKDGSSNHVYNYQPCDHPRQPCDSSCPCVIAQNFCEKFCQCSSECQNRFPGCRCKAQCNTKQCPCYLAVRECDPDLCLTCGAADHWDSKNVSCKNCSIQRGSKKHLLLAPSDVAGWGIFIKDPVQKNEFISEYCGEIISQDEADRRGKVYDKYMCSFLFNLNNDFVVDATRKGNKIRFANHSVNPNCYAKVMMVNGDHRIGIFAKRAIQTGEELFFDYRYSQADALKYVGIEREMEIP

[2] = molecular target: Histone-lysine N-methyltransferase EZH2 (Homo sapiens) (UniProt Q15910); assay: Inhibition of EZH2 (unknown origin) in Lymphoblastoid cells assessed as reduction in H3K27me3 levels at 1 uM after 3 days by CHIP assay; settings: Lymphoblastoid cell, time 3.0 day
[3] = molecular target: Histone-lysine N-methyltransferase EZH2 (Homo sapiens) (UniProt Q15910); assay: Inhibition of EZH2 (unknown origin) in Lymphoblastoid cells assessed as effect on lytic gene EBNA1 at 1 uM for 3 days followed by addition of TPA, A23187 and sodium butyrate for lytic induction for 2 days by qRT-PCR analysis; settings: Lymphoblastoid cell, time 5.0 day
[4] = molecular target: Histone-lysine N-methyltransferase EZH2 (Homo sapiens) (UniProt Q15910); assay: Inhibition of EZH2 in human EBV-positive Akata cells assessed as effect on lytic gene BZLF1 at 1 uM for 3 days followed by addition of ant-IgG for lytic induction for 2 days by qRT-PCR analysis; settings: time 5.0 day
[5] = molecular target: Histone-lysine N-methyltransferase EZH2 (Homo sapiens) (UniProt Q15910); assay: Inhibition of EZH2 (unknown origin) in Lymphoblastoid cells assessed as reduction in H3K27me3 levels at 1 uM after 3 days by Western blot analysis; settings: Lymphoblastoid cell, time 3.0 day
[6] = molecular target: Histone-lysine N-methyltransferase EZH2 (Homo sapiens) (UniProt Q15910); assay: Inhibition of EZH2 (unknown origin) in Lymphoblastoid cells assessed as effect on lytic gene EBNA2 at 1 uM for 3 days followed by addition of TPA, A23187 and sodium butyrate for lytic induction for 2 days by qRT-PCR analysis; settings: Lymphoblastoid cell, time 5.0 day
[7] = molecular target: Histone-lysine N-methyltransferase EZH2 (Homo sapiens) (UniProt Q15910); assay: Inhibition of EZH2 in human EBV-positive Akata cells assessed as effect on lytic gene BARTs at 1 uM for 3 days followed by addition of ant-IgG for lytic induction for 2 days by qRT-PCR analysis; settings: time 5.0 day
[8] = molecular target: Histone-lysine N-methyltransferase EZH2 (Homo sapiens) (UniProt Q15910); assay: Inhibition of EZH2 in human EBV-positive Akata cells assessed as effect on lytic gene gp350/200 at 1 uM after 3 days by qRT-PCR analysis; settings: time 3.0 day
[9] = molecular target: Histone-lysine N-methyltransferase EZH2 (Homo sapiens) (UniProt Q15910); assay: Inhibition of EZH2 in human EBV-positive Akata cells assessed as effect on lytic gene LMP2 at 1 uM for 3 days followed by addition of ant-IgG for lytic induction for 2 days by qRT-PCR analysis; settings: time 5.0 day
[10] = molecular target: Histone-lysine N-methyltransferase EZH2 (Homo sapiens) (UniProt Q15910); assay: Inhibition of EZH2 in human EBV-positive Akata cells assessed as reduction in H3K27me3 levels at 1 uM after 3 days by CHIP assay; settings: time 3.0 day
[11] = molecular target: Histone-lysine N-methyltransferase EZH2 (Homo sapiens) (UniProt Q15910); assay: Inhibition of EZH2 (unknown origin) in Lymphoblastoid cells assessed as effect on lytic gene BARTs at 1 uM for 3 days followed by addition of TPA, A23187 and sodium butyrate for lytic induction for 2 days by qRT-PCR analysis; settings: Lymphoblastoid cell, time 5.0 day
[12] = molecular target: Histone-lysine N-methyltransferase EZH2 (Homo sapiens) (UniProt Q15910); assay: Inhibition of EZH2 in human EBV-positive Akata cells assessed as increase in lytic gene LMP1 at 1 uM after 3 days by qRT-PCR analysis relative control; settings: time 3.0 day
[13] = molecular target: Histone-lysine N-methyltransferase EZH2 (Homo sapiens) (UniProt Q15910); assay: Inhibition of EZH2 in human EBV-positive Akata cells assessed as effect on lytic gene EBNA1 at 1 uM for 3 days followed by addition of ant-IgG for lytic induction for 2 days by qRT-PCR analysis; settings: time 5.0 day
[14] = molecular target: Histone-lysine N-methyltransferase EZH2 (Homo sapiens) (UniProt Q15910); assay: Inhibition of EZH2 in human EBV-positive Akata cells assessed as effect on lytic gene EBER1 at 1 uM after 3 days by qRT-PCR analysis; settings: time 3.0 day
[15] = molecular target: Histone-lysine N-methyltransferase EZH2 (Homo sapiens) (UniProt Q15910); assay: Inhibition of EZH2 in human EBV-positive Akata cells assessed as reduction in H3K27me3 levels at 1 uM after 3 days by Western blot analysis; settings: time 3.0 day
[16] = molecular target: Histone-lysine N-methyltransferase EZH2 (Homo sapiens) (UniProt Q15910); assay: Inhibition of EZH2 (unknown origin) in Lymphoblastoid cells assessed as effect on lytic gene BZLF1 at 1 uM for 3 days followed by addition of TPA, A23187 and sodium butyrate for lytic induction for 2 days by qRT-PCR analysis; settings: Lymphoblastoid cell, time 5.0 day
[17] = molecular target: Histone-lysine N-methyltransferase EZH2 (Homo sapiens) (UniProt Q15910); assay: Inhibition of EZH2 (unknown origin) in Lymphoblastoid cells assessed as effect on lytic gene EBER1 at 1 uM for 3 days followed by addition of TPA, A23187 and sodium butyrate for lytic induction for 2 days by qRT-PCR analysis; settings: Lymphoblastoid cell, time 5.0 day
[18] = molecular target: Histone-lysine N-methyltransferase EZH2 (Homo sapiens) (UniProt Q15910); assay: Inhibition of EZH2 in human EBV-positive Akata cells assessed as effect on lytic gene EBNA2 at 1 uM after 3 days by qRT-PCR analysis; settings: time 3.0 day
[19] = molecular target: Histone-lysine N-methyltransferase EZH2 (Homo sapiens) (UniProt Q15910); assay: Inhibition of EZH2 in human EBV-positive Akata cells assessed as effect on lytic gene BARTs at 1 uM after 3 days by qRT-PCR analysis; settings: time 3.0 day
[20] = molecular target: Histone-lysine N-methyltransferase EZH2 (Homo sapiens) (UniProt Q15910); assay: Inhibition of EZH2 in human EBV-positive Akata cells assessed as effect on lytic gene LMP2 at 1 uM after 3 days by qRT-PCR analysis; settings: time 3.0 day
[21] = molecular target: Histone-lysine N-methyltransferase EZH2 (Homo sapiens) (UniProt Q15910); assay: Inhibition of EZH2 (unknown origin) in Lymphoblastoid cells assessed as effect on lytic gene gp350/200 at 1 uM for 3 days followed by addition of TPA, A23187 and sodium butyrate for lytic induction for 2 days by qRT-PCR analysis; settings: Lymphoblastoid cell, time 5.0 day
[22] = molecular target: Histone-lysine N-methyltransferase EZH2 (Homo sapiens) (UniProt Q15910); assay: Inhibition of EZH2 in human EBV-positive Akata cells assessed as effect on cell viability at 1 uM
[23] = molecular target: Histone-lysine N-methyltransferase EZH2 (Homo sapiens) (UniProt Q15910); assay: Inhibition of EZH2 in human EBV-positive Akata cells assessed as effect on lytic gene EBER1 at 1 uM for 3 days followed by addition of ant-IgG for lytic induction for 2 days by qRT-PCR analysis; settings: time 5.0 day
[24] = molecular target: Histone-lysine N-methyltransferase EZH2 (Homo sapiens) (UniProt Q15910); assay: Inhibition of EZH2 in human EBV-positive Akata cells assessed as effect on lytic gene EBNA2 at 1 uM for 3 days followed by addition of ant-IgG for lytic induction for 2 days by qRT-PCR analysis; settings: time 5.0 day
[25] = molecular target: Histone-lysine N-methyltransferase EZH2 (Homo sapiens) (UniProt Q15910); assay: Inhibition of EZH2 (unknown origin) in Lymphoblastoid cells assessed as effect on lytic gene LMP1 at 1 uM for 3 days followed by addition of TPA, A23187 and sodium butyrate for lytic induction for 2 days by qRT-PCR analysis relative to control; settings: Lymphoblastoid cell, time 5.0 day
[26] = molecular target: Histone-lysine N-methyltransferase EZH2 (Homo sapiens) (UniProt Q15910); assay: Inhibition of EZH2 in human EBV-positive Akata cells assessed as effect on lytic gene gp350/200 at 1 uM for 3 days followed by addition of ant-IgG for lytic induction for 2 days by qRT-PCR analysis; settings: time 5.0 day
[27] = molecular target: Histone-lysine N-methyltransferase EZH2 (Homo sapiens) (UniProt Q15910); assay: Inhibition of EZH2 in human EBV-positive Akata cells assessed as increase in lytic gene LMP1 at 1 uM for 3 days followed by addition of ant-IgG for lytic induction for 2 days by qRT-PCR analysis relative to control; settings: time 5.0 day
[28] = molecular target: Histone-lysine N-methyltransferase EZH2 (Homo sapiens) (UniProt Q15910); assay: Inhibition of EZH2 (unknown origin) in Lymphoblastoid cells assessed as effect on lytic gene LMP2 at 1 uM for 3 days followed by addition of TPA, A23187 and sodium butyrate for lytic induction for 2 days by qRT-PCR analysis; settings: Lymphoblastoid cell, time 5.0 day
[29] = molecular target: Histone-lysine N-methyltransferase EZH2 (Homo sapiens) (UniProt Q15910); assay: Inhibition of EZH2 in human EBV-positive Akata cells assessed as effect on lytic gene EBNA1 at 1 uM after 3 days by qRT-PCR analysis; settings: time 3.0 day

CCCc1cc(C)[nH]c(=O)c1CNC(=O)c1cc(-c2ccnc(N3CCN(C)CC3)c2)cc2c1cnn2C(C)C
inhibition [1]: inactive
inhibition [2]: Active
inhibition [3]: inactive
inhibition [4]: inactive
inhibition [5]: Active
inhibition [6]: inactive
inhibition [7]: inactive
inhibition [8]: inactive
inhibition [9]: inactive
inhibition [10]: Active
inhibition [11]: inactive
fold change (FC) [12]: 2.6
inhibition [13]: inactive
inhibition [14]: inactive
inhibition [15]: Active
inhibition [16]: inactive
inhibition [17]: inactive
inhibition [18]: inactive
inhibition [19]: inactive
inhibition [20]: inactive
inhibition [21]: inactive
inhibition [22]: inactive
inhibition [23]: inactive
inhibition [24]: inactive
fold change (FC) [25]: 8.3
inhibition [26]: inactive
fold change (FC) [27]: 6.7
inhibition [28]: inactive
inhibition [29]: inactive
